Source: patent publication US20240043400A1, “Octahydroisoquinolinyl Derivatives” (UCB Biopharma SRL, priority 2020, published 2024)

These compounds were tested against T1, dopamine D1 receptor (Homo sapiens, UniProt P21728) (assay: cAMP HTRF potentiation assay (in the presence of dopamine)). Settings: potentiation of cAMP with [EC20] of dopamine (1.1 nM); LMtk (Ltk−) mouse fibroblast cells expressing the dopamine D1 receptor.
T1 construct: host or cells: LMtk (Ltk-) mouse fibroblast cells, kept under Geneticin
Assay type: cell-based
Experimental: The potentiation assay measures the ability of compounds to increase the levels of cAMP produced by a low-threshold concentration of dopamine. The concentration of dopamine used ([EC20]) is designed to produce 20% stimulation compared to the maximal response (100%) seen with increasing the concentration of dopamine. To measure this potentiation we incubate increasing concentrations of the compound with the [EC20] of dopamine and measure the potentiation as increases in cAMP production. The pEC50 of a compound is the −log 10 of the concentration of the compound which produces 50% of the potentiation of the cAMP levels and the Erel is the relative efficacy, defined as the maximal % potentiation produced by the compound compared to the maximal response produced by increasing concentrations of dopamine (Erel of 1=dopamine maximum response).
Cells were cultured at 37° C. in a humidified atmosphere of 5% CO2. Cells were grown in DMEM-F12+GlutaMAX™-1 medium (GIBCO®, Invitrogen, Merelbeke, Belgium) containing 10% fetal bovine serum (BioWhittaker®, Lonza, Verviers, Belgium), 400 μg/mL Geneticin (GIBCO®), 100 IU/mL Penicillin and 100 IU/mL Streptomycin (Pen-Strep solution, BioWhittaker®).
The measurement of changes in intracellular cyclic adenosinemonophopshpate (cAMP) was determined using the HTRF cAMP dynamic assay kit from CisBio (Codolet, France). Using homogenous time-resolved fluoresence technology, the assay is based on competition between native cAMP produced by cells and cAMP labelled with the dye d2. The tracer binding is determined by an anti-cAMP antibody labeled with cryptate. The effects of the compound alone (agonism) was determined by performing the assay in the absence of dopamine, whilst the effect of the compound as a positive allosteric modulator (PAM) was determined in the presence of an EC20 concentration of dopamine. Cells (20,000 per well) are incubated in 384 plates for 1 h at rt in a final volume of 20 μLHBSS (Lonza, with calcium, magnesium and HEPES buffer 20 mM, pH 7.4) containing: isobutyl methylxanthine (Sigma, 0.1 mM final), varying concentrations of test compound (typically 10^−9.5 M to 10^−4.5 M) in the presence and absence of dopamine (1.1 nM final). The reaction is then terminated and the cells lysed by adding the d2 detection reagent in lysis buffer (10 μL) and the cryptate reagent in lysis buffer (10 μL) according to manufacturer's instructions. This is then incubated for a further 60 min at rt and changes in HTRF fluorescent emission ratio determined according to manufacturer's instructions using an Envision plate reader (Perkin Elmer, Zaventem, Belgium) with laser excitation. All incubations were performed in duplicate and results were compared to a concentration-effect curve to dopamine. (10^−11 M to 10^−6 M).
Data was analyzed using Excel and PRISM (GraphPad Software) to obtain pEC50 and Erel using the 4-parameter logistic equation (DeLean et al, 1978) where Erel is the fitted maximal response of the test compound minus basal expressed as a percentage relative to that obtained with dopamine which was defined as 100%.

T1 sequence (P21728 whole entry): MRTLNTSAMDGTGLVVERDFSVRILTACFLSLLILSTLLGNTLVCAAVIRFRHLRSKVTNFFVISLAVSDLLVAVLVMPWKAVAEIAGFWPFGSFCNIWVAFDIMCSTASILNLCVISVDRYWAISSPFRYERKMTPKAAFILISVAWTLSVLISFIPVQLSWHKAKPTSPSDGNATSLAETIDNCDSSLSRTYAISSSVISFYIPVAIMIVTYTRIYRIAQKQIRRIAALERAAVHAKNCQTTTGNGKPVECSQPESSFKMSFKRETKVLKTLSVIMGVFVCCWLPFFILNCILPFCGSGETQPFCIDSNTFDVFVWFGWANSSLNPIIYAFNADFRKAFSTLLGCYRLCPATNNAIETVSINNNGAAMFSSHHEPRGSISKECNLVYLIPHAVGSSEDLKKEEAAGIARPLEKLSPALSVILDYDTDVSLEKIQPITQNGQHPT

SMILES | EC50
COc1ccc(C#N)c(CC(=O)N2CC[C@@H]3[C@H](CCC[C@H]3C(C)(O)C(F)(F)F)[C@@H]2C)c1Cl (single isomer, unassigned) [Example 7-B] | 794 nM
C[C@H]1[C@H]2CCC[C@@H](CCC(C)(C)O)[C@@H]2CCN1C(=O)Cc1c(Cl)ccc2c1c(Cl)nn2C [Example 22, 1-[(1S,4aS,5S,8aS)-5-(3-hydroxy-3-methyl-butyl)-1-methyl-3,4,4a,5,6,7,8,8a-octahydro-1H-isoquinolin-2-yl]-2-(3,5-dichloro-1-methyl-indazol-4-yl)ethanone] | 200 nM
C[C@H]1[C@H]2CCC[C@@H]([C@H](O)C(F)(F)F)[C@@H]2C[C@H](CO)N1C(=O)Cc1c(Cl)ccc2c1c(Cl)nn2C [Example 26-A, 1-[(1S,3R,4aR,5R,8aS)-3-(hydroxymethyl)-1-methyl-5-[(1S)-2,2,2-trifluoro-1-hydroxy-ethyl]-3,4,4a,5,6,7,8,8a-octahydro-1H-isoquinolin-2-yl]-2-(3,5-dichloro-1-methyl-indazol-4-yl)ethanone] | 3160 nM
CC(O)c1ncc(Cl)c(CC(=O)N2CC[C@@H]3[C@H](CCC[C@H]3[C@](C)(O)C(F)F)[C@@H]2C)c1Cl (single isomer, unassigned) [Example 18-A] | 200 nM
COc1ccc(C#N)c(CC(=O)N2CC[C@H]3C(C#CC(C)(C)O)CCC[C@@H]3[C@@H]2C)c1Cl (stereo partly drawn) [Example 20, 2-[2-[(1S,4aS,8aS)-5-(3-hydroxy-3-methyl-but-1-ynyl)-1-methyl-3,4,4a,5,6,7,8,8a-octahydro-1H-isoquinolin-2-yl]-2-oxo-ethyl]-3-chloro-4-methoxy-benzonitrile] | 158 nM
COc1ccc(C#N)c(CC(=O)N2CC[C@@H]3[C@H](CCC[C@H]3c3cn[nH]n3)[C@@H]2C)c1Cl [Example 25, 2-[2-[(1S,4aR,5R,8aS)-1-methyl-5-(2H-triazol-4-yl)-3,4,4a,5,6,7,8,8a-octahydro-1H-isoquinolin-2-yl]-2-oxoethyl]-3-chloro-4-methoxybenzonitrile] | 631 nM
C[C@H]1[C@H]2CCC[C@@H]([C@H](O)C(F)(F)F)[C@@H]2CCN1C(=O)Cc1c(Cl)ccc2c1c(Cl)cn2C [Example 27, 1-[(1 S,4aR,5R,8aS)-1-methyl-5-[(1 S)-2,2,2-trifluoro-1-hydroxy-ethyl]-3,4,4a,5,6,7,8,8a-octahydro-1H-isoquinolin-2-yl]-2-(3,5-dichloro-1-methyl-indol-4-yl)ethanone] | 251 nM
C[C@H]1[C@H]2CCC[C@@H]([C@H](O)C(F)(F)F)[C@@H]2CCN1C(=O)Cc1c(Cl)ccc(OC(F)F)c1Cl [Example 19, 1-[(1 S,4aR,5R,8aS)-1-methyl-5-[(1 S)-2,2,2-trifluoro-1-hydroxy-ethyl]-3,4,4a,5,6,7,8,8a-octahydro-1H-isoquinolin-2-yl]-2-[2,6-dichloro-3-(difluoromethoxy)phenyl]ethanone] | 200 nM

Now from value to compound:

EC50 | SMILES
79.4 nM | C[C@H]1[C@H]2CCC[C@@H]([C@@H](O)C(F)(F)F)[C@@H]2CCN1C(=O)Cc1c(Cl)cnc(C(C)(O)C(F)F)c1Cl (single isomer, unassigned) [Example 16-B]
25.1 nM | C[C@H]1[C@H]2CCC[C@@H]([C@H](O)C(F)(F)F)[C@@H]2CCN1C(=O)Cc1c(Cl)cnc(C(O)C(F)F)c1Cl (single isomer, unassigned) [Example 15-B]
50.1 nM | COc1ccc(C#N)c(CC(=O)N2CC[C@H]3[C@H](CCC(C)(C)O)CCC[C@@H]3[C@@H]2C)c1Cl [Example 21, 2-[2-[(1S,4aS,5S,8aS)-5-(3-hydroxy-3-methyl-butyl)-1-methyl-3,4,4a,5,6,7,8,8a-octahydro-1H-isoquinolin-2-yl]-2-oxo-ethyl]-3-chloro-4-methoxy-benzonitrile]
158 nM | CC(O)c1ncc(Cl)c(CC(=O)N2CC[C@H]3[C@H]([C@H](O)C(F)F)CCC[C@@H]3[C@@H]2C)c1Cl (single isomer, unassigned) [Example 17-A]
39.8 nM | CC(O)c1ncc(Cl)c(CC(=O)N2CC[C@H]3[C@H](CCC(C)(C)O)CCC[C@@H]3[C@@H]2C)c1Cl (single isomer, unassigned) [Example 24-B]
39.8 nM | C[C@H]1[C@H]2CCC[C@@H]([C@H](O)C(F)(F)F)[C@@H]2CCN1C(=O)Cc1c(Cl)cnc(C(O)C(F)F)c1Cl (single isomer, unassigned) [Example 15-A]
158 nM | CC(O)c1ncc(Cl)c(CC(=O)N2CC[C@@H]3[C@H](CCC[C@H]3[C@](C)(O)C(F)F)[C@@H]2C)c1Cl (single isomer, unassigned) [Example 18-B]
79.4 nM | CC(O)c1ncc(Cl)c(CC(=O)N2CC[C@H]3[C@H](CCC(C)(C)O)CCC[C@@H]3[C@@H]2C)c1Cl (single isomer, unassigned) [Example 24-A]
50.1 nM | C[C@H]1[C@@H]2CCC[C@H]([C@H](O)C(F)(F)F)[C@H]2C[C@H](CO)N1C(=O)Cc1c(Cl)ccc2c1c(Cl)nn2C [Example 26-B, 1-[(1S,3R,4aS,5S,8aR)-3-(hydroxymethyl)-1-methyl-5-[(1S)-2,2,2-trifluoro-1-hydroxy-ethyl]-3,4,4a,5,6,7,8,8a-octahydro-1H-isoquinolin-2-yl]-2-(3,5-dichloro-1-methyl-indazol-4-yl)ethanone]
126 nM | CC(O)c1ncc(Cl)c(CC(=O)N2CC[C@H]3[C@H]([C@H](O)C(F)F)CCC[C@@H]3[C@@H]2C)c1Cl (single isomer, unassigned) [Example 17-B]
50.1 nM | C[C@H]1[C@H]2CCC[C@@H](CCC(C)(C)O)[C@@H]2CCN1C(=O)Cc1c(Cl)cnc(CO)c1Cl [Example 23, 1-[(1S,4aS,5S,8aS)-5-(3-hydroxy-3-methyl-butyl)-1-methyl-3,4,4a,5,6,7,8,8a-octahydro-1H-isoquinolin-2-yl]-2-[3,5-dichloro-2-(hydroxymethyl)-4-pyridyl]ethanone]

The compounds below were run against T2, human GABAA receptor α1β2 and γ2 subunits (Homo sapiens, UniProt P14867+P18507+P47870) (assay: Automated patch clamp studies on the GABAA receptor cells). Settings: 10 μM compound; 15 μM GABA; CHO-K1 cells; Table B.
T2 construct: expressed in transfected cells
Assay type: cell-based
Experimental: CHO-K1 cells stably expressing human GABAA receptor α1β2 and γ2 subunits were used. The cells were harvested using trypsin and maintained in serum-free medium at room temperature. The cells were washed and re-suspended in extracellular solution before testing.
Experiments on human GABAA (α1β2γ2) channels were conducted using an automated patch clamp assay (lonFlux™ HT). The external solution for recording GABAA currents was composed of sodium chloride 137 mM, potassium chloride 4 mM, calcium chloride 1.8 mM, magnesium chloride 1 mM, HEPES 10 mM, and glucose 10 mM. Both external and internal solutions were titrated with NaOH or KOH to obtain a pH of 7.35 and 7.3, respectively. The internal pipette solution contained potassium fluoride 70 mM, potassium chloride 60 mM, sodium chloride 70 mM, HEPES 5 mM, EGTA 5 mM, and Magnesium ATP 4 mM. The final concentration of vehicle used to dilute compounds was 0.33% DMSO in each well. Bicuculline (0.032 to 100 μM) was used as positive control inhibitor. GABA (15 μM) was used as agonist. All recordings were obtained from a holding potential of −60 mV.
The compound addition sequence was the following: one addition of the EC80 concentration of GABA was added to establish baseline response. Each concentration of compound was applied for 30 seconds followed by the addition of 15 μM GABA in the presence of the compound for 2 seconds. The process was repeated with the next ascending concentration of compound. Peak inward currents in response to the GABA additions in the presence of a single concentration of compound were measured. All compound data have been normalized to the baseline peak current induced by addition of 15 μM GABA for 2 seconds.

T2 sequence (P14867 28-456): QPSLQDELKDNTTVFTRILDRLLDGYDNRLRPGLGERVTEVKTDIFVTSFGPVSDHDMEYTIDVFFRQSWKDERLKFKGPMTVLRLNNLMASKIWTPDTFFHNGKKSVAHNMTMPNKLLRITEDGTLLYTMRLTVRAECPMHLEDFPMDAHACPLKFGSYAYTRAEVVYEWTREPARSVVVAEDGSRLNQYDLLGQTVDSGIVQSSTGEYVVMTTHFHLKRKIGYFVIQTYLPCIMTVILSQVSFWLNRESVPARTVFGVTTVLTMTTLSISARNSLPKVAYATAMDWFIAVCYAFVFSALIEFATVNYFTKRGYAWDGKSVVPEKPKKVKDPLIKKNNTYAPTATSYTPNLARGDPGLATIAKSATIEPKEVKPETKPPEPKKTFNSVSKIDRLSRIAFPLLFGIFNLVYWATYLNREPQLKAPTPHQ
T2 sequence (P47870 25-512 limits assumed): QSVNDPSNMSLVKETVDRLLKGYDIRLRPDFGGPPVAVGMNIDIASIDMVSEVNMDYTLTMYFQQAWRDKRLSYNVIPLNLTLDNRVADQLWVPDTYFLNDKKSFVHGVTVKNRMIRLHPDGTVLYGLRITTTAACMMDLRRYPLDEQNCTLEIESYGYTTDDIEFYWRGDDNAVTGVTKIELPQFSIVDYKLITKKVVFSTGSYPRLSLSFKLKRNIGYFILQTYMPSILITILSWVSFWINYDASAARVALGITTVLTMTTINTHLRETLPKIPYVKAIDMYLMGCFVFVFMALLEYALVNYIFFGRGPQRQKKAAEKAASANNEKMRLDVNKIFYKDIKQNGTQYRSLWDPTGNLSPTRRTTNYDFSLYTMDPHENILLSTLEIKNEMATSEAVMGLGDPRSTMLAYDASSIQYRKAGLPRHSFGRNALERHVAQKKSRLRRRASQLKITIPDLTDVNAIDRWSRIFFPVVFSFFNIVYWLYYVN
T2 sequence (P18507 40-475): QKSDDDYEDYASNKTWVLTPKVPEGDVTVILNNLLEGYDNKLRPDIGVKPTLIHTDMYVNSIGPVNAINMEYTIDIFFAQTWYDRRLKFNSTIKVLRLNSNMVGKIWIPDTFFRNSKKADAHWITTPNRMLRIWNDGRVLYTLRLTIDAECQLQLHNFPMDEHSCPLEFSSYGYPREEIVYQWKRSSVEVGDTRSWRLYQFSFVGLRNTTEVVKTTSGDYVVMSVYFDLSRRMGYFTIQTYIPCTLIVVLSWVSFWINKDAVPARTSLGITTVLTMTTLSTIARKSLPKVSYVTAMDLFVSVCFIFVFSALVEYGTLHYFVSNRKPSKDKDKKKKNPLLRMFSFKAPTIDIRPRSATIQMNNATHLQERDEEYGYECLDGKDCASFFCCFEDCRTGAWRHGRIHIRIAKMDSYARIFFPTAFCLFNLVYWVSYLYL

% GABAA inhibition | SMILES
1.4% | COc1ccc(C#N)c(CC(=O)N2CC[C@@H]3[C@H](CCC[C@H]3C(C)(O)C(F)(F)F)[C@@H]2C)c1Cl (single isomer, unassigned) [Example 7-B]

The compounds below were run against T3, CYP3A4 (Homo sapiens, UniProt P08684) (assay: In vitro assessment of CYP3A4 inhibition potential using cryopreserved human microsomes). Settings: human, cryopreserved human microsomes (pooled donors), probe midazolam 2.5 μM (1-hydroxymidazolam formation), 20 μM compound, human microsomes 0.25 mg/ml, Table C.
T3 construct: cryopreserved human microsomes (pooled donors); from tissue
Assay type: in vitro ADME
Experimental: The objective of the human microsome assay is to characterize the inhibition potential of Compound of formula (I) by measuring the CYP3A4 activities after its co-incubation with midazolam, a specific CYP3A4 substrate.
To this aim, cryopreserved human microsomes (pooled donors) are divided on a 48 well collagen coated plate so that the final concentration is 0.25 mg/ml. The UCB compound is then added in the wells at 20 μM concentration in duplicate. After 30 min incubation, midazolam is added at 2.5 μM concentration. After 15 min, an aliquot is removed and placed into an equal volume of methanol containing internal standard. The samples are centrifuged at 2500 rpm at 4° C. for 20 min. An aliquot of supernatant is diluted with deionised water and levels of 1-hydroxymidazolam is quantified using generic LC MS/MS methods.
The concentrations are compared to those obtained after midazolam incubation at the same concentration but without UCB compound pre-incubation. The results are expressed as % of inhibition.

T3 sequence (P08684 whole entry): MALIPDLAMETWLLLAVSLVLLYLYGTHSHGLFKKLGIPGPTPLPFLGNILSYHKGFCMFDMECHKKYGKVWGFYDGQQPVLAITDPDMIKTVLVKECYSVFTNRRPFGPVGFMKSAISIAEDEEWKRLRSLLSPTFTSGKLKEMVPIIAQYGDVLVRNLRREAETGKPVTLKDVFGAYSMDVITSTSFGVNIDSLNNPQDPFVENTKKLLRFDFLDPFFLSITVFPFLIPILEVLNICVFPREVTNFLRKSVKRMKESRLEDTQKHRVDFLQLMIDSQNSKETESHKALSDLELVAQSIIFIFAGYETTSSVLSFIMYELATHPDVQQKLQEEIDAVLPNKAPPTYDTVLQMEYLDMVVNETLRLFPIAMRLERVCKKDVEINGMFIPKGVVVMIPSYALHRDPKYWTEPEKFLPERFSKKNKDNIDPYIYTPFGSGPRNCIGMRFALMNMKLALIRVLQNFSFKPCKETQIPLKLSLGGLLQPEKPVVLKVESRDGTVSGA

inhibition at 15 min, 20 μM | SMILES
≤ 20% | C[C@H]1[C@H]2CCC[C@@H]([C@H](O)C(F)(F)F)[C@@H]2CCN1C(=O)Cc1c(Cl)cnc(C(O)C(F)F)c1Cl (single isomer, unassigned) [Example 15-A]
